# Assay results as given in patent US20190047966A1, “NOVEL COMPOUND AND PHARMACOLOGICALLY ACCEPTABLE SALT THEREOF” (MEIJI SEIKA PHARMA CO., LTD., priority 2016, published 2019).
# Counter-ions that a name gives are not always drawn.
# Legend:
# [1] = target: T1, human histamine H4 receptor (Homo sapiens, UniProt Q9H3N8); assay: Evaluation of Human H4 Receptor Affinity ([3H]histamine binding); settings: inhibition constant Ki, CHO-K1 membrane preparation, read-out: Evaluation of H4 Receptor Affinity
# T1 construct: purchased PerkinElmer Inc; host or cells: CHO-K1
# How it was run: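 Membranes from CHO-K1 cells expressing human H4 receptor incubated with 8.2 nM [3H]histamine and compound for 90 min at 25 °C in 50 mM Tris-HCl pH 7.4, 1.25 mM EDTA, then filtered and counted. Nonspecific binding defined with 1.0 μM histamine; Ki from IC50 by Cheng-Prusoff using Kd 5.7 nM.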
# [2] = target: human histamine H1 receptor (Homo sapiens, UniProt P35367); assay: Evaluation of Human H1 Receptor Affinity ([3H]pyrilamine binding); set-up: purchased PerkinElmer Inc; host or cells: CHO-K1; settings: inhibition constant Ki, CHO-K1 membrane preparation
# How it was run: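 Ki values are Cheng-Prusoff conversions of IC50 (Kd 1.1 nM) from radioligand displacement of 1.2 nM [3H]pyrilamine, with 1.0 μM pyrilamine defining nonspecific binding.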
# Chain of human histamine H1 receptor (P35367 whole entry): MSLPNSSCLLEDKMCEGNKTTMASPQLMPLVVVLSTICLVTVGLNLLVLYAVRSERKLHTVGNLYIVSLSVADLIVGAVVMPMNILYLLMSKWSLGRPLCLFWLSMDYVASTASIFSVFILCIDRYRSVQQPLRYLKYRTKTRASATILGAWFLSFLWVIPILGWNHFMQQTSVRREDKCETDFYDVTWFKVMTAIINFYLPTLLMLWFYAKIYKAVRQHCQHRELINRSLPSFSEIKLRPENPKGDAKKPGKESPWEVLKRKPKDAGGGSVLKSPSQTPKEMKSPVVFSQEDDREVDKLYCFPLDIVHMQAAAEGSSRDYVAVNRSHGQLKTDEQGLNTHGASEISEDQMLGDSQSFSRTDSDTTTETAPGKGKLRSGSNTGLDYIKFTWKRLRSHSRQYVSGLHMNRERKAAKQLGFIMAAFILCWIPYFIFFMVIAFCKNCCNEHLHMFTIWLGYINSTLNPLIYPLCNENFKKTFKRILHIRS
Ki [1],Ki [2],SMILES
100 to 500 nM,< 100 nM,"Nc1nc2c(c(N3CCN(CCOC4CC4C(=O)O)CC3)n1)CCc1cc(OCc3ccc(Cl)cc3)ccc1-2 (stereo not drawn) [Example 154, 2-(2-(4-(2-amino-8-((4-chlorobenzyl)oxy)-5,6-dihydrobenzo[h]quinazolin-4-yl)piperazin-1-yl)ethoxy)cyclopropane-1-carboxylic acid]"
< 100 nM,< 100 nM,"Cn1cc(COCCN2CCN(c3nc(N)nc4c3CCc3cc(OCc5ccc(Cl)cc5)ccc3-4)CC2)cc1C(=O)O [Example 156, 4-((2-(4-(2-amino-8-((4-chlorobenzyl)oxy)-5,6-dihydrobenzo[h]quinazolin-4-yl)piperazin-1-yl)ethoxy)methyl)-1-methyl-1H-pyrrole-2-carboxylic acid hydrochloride]"
100 to 500 nM,< 100 nM,"CC12CCC(C(=O)O)(CC1OCCN1CCN(c3nc(N)nc4c3CCc3cc(OCc5ccc(Cl)cc5)ccc3-4)CC1)C2(C)C (stereo not drawn) [Example 158, 3-(2-(4-(2-amino-8-((4-chlorobenzyl)oxy)-5,6-dihydrobenzo[h]quinazolin-4-yl)piperazin-1-yl)ethoxy)-4,7,7-trimethylbicyclo[2.2.1]heptane-1-carboxylic acid hydrochloride]"
< 100 nM,< 100 nM,"CC1(C(=O)O)CCC(OCCN2CCN(c3nc(N)nc4c3CCc3cc(OCc5ccc(Cl)cc5)ccc3-4)CC2)CC1 (stereo not drawn) [Example 161, 4-(2-(4-(2-amino-8-((4-chlorobenzyl)oxy)-5,6-dihydrobenzo[h]quinazolin-4-yl)piperazin-1-yl)ethoxy)-1-methylcyclohexane-1-carboxylic acid]"
100 to 500 nM,100 to 500 nM,"CC(C)(C(=O)O)c1ccc(OCCN2CCN(c3nc(N)nc4c3CCc3cc(OCc5ccc(Cl)cc5)ccc3-4)CC2)cc1 [Example 162, 2-(4-(2-(4-(2-amino-8-((4-chlorobenzyl)oxy)-5,6-dihydrobenzo[h]quinazolin-4-yl)piperazin-1-yl)ethoxy)phenyl)-2-methylpropanoic acid]"
< 100 nM,< 100 nM,"CC(C)(C(=O)O)[C@H]1C[C@@H](OCCN2CCN(c3nc(N)nc4c3CCc3cc(OCc5ccc(Cl)cc5)ccc3-4)CC2)C1 [Example 172, cis-2-(3-(2-(4-(2-amino-8-((4-chlorobenzyl)oxy)-5,6-dihydrobenzo[h]quinazolin-4-yl)piperazin-1-yl)ethoxy)cyclobutyl)-2-methylpropanoic acid]"
< 100 nM,< 100 nM,"CC(C)(C(=O)O)[C@H]1C[C@H](OCCN2CCN(c3nc(N)nc4c3CCc3cc(OCc5ccc(Cl)cc5)ccc3-4)CC2)C1 [Example 173, trans-2-(3-(2-(4-(2-amino-8-((4-chlorobenzyl)oxy)-5,6-dihydrobenzo[h]quinazolin-4-yl)piperazin-1-yl)ethoxy)cyclobutyl)-2-methylpropanoic acid]"
< 100 nM,< 100 nM,"N#CC1(C(=O)O)CCC(COCCN2CCN(c3nc(N)nc4c3CCc3cc(OCc5ccc(OC(F)(F)F)cc5)ccc3-4)CC2)CC1 (stereo not drawn) [Example 175, 4-((2-(4-(2-amino-8-((4-(trifluoromethoxy)benzyl)oxy)-5,6-dihydrobenzo[h]quinazolin-4-yl)piperazin-1-yl)ethoxy)methyl)-1-cyanocyclohexane-1-carboxylic acid]"

# Continued, molecule first:
SMILES,Ki [1],Ki [2]
"Nc1nc2c(c(N3CCN(CCOC45CCC(C(=O)O)(CC4)CC5)CC3)n1)CCc1cc(OCc3ccc(Cl)cc3)ccc1-2 [Example 157, 4-(2-(4-(2-amino-8-((4-chlorobenzyl)oxy)-5,6-dihydrobenzo[h]quinazolin-4-yl)piperazin-1-yl)ethoxy)bicyclo[2.2.2]octane-1-carboxylic acid hydrochloride]",< 100 nM,< 100 nM
"Nc1nc2c(c(N3CCN(CCOCC4(CCC(=O)O)COC4)CC3)n1)CCc1cc(OCc3ccc(Cl)cc3)ccc1-2 [Example 163, 3-(3-((2-(4-(2-amino-8-((4-chlorobenzyl)oxy)-5,6-dihydrobenzo[h]quinazolin-4-yl)piperazin-1-yl)ethoxy)methyl)oxetan-3-yl)propanoic acid]",< 100 nM,< 100 nM
"CC1(COCCN2CCN(c3nc(N)nc4c3CCc3cc(OCc5ccc(Cl)cc5)ccc3-4)CC2)CCC(C(=O)O)CC1 (stereo not drawn) [Example 164, cis- or trans-4-((2-(4-(2-amino-8-((4-chlorobenzyl)oxy)-5,6-dihydrobenzo[h]quinazolin-4-yl)piperazin-1-yl)ethoxy)methyl)-4-methylcyclohexane-1-carboxylic acid]",< 100 nM,< 100 nM
"CC1(C(=O)O)CCC(COCCN2CCN(c3nc(N)nc4c3CCc3cc(OCc5ccc(Cl)cc5)ccc3-4)CC2)CC1 (stereo not drawn) [Example 165, trans- or cis-4-((2-(4-(2-amino-8-((4-chlorobenzyl)oxy)-5,6-dihydrobenzo[h]quinazolin-4-yl)piperazin-1-yl)ethoxy)methyl)-1-methylcyclohexane-1-carboxylic acid]",< 100 nM,< 100 nM
"Nc1nc2c(c(N3CCN(CCOCCOCC4(C(=O)O)COC4)CC3)n1)CCc1cc(OCc3ccc(Cl)cc3)ccc1-2 [Example 168, 3-((2-(2-(4-(2-amino-8-((4-chlorobenzyl)oxy)-5,6-dihydrobenzo[h]quinazolin-4-yl)piperazin-1-yl)ethoxy)ethoxy)methyl)oxetane-3-carboxylic acid]",100 to 500 nM,< 100 nM
"Nc1nc2c(c(N3CCN(CCOCC4CC(C(=O)O)C4)CC3)n1)CCc1cc(OCc3ccc(Cl)cc3)ccc1-2 (stereo not drawn) [Example 169, cis- or trans-3-((2-(4-(2-amino-8-((4-chlorobenzyl)oxy)-5,6-dihydrobenzo[h]quinazolin-4-yl)piperazin-1-yl)ethoxy)methyl)cyclobutane-1-carboxylic acid]",100 to 500 nM,< 100 nM
"Nc1nc2c(c(N3CCN(CCOCC4CC(C(=O)O)C4)CC3)n1)CCc1cc(OCc3ccc(Cl)cc3)ccc1-2 (stereo not drawn) [Example 170, trans- or cis-3-((2-(4-(2-amino-8-((4-chlorobenzyl)oxy)-5,6-dihydrobenzo[h]quinazolin-4-yl)piperazin-1-yl)ethoxy)methyl)cyclobutane-1-carboxylic acid]",< 100 nM,< 100 nM
"CC(C)(C(=O)O)[C@H]1C[C@H](OCCN2CCN(c3nc(N)nc4c3CCc3cc(OCc5ccc(OC(F)(F)F)cc5)ccc3-4)CC2)C1 [Example 174, trans-2-(3-(2-(4-(2-amino-8-((4-(trifluoromethoxy)benzyl)oxy)-5,6-dihydrobenzo[h]quinazolin-4-yl)piperazin-1-yl)ethoxy)cyclobutyl)-2-methylpropanoic acid]",< 100 nM,< 100 nM
"Nc1nc2c(c(N3CCN(CCOC4CCC(C(=O)O)OC4)CC3)n1)CCc1cc(OCc3ccc(OC(F)(F)F)cc3)ccc1-2 (stereo not drawn) [Example 179, 5-(2-(4-(2-amino-8-((4-(trifluoromethoxy)benzyl)oxy)-5,6-dihydrobenzo[h]quinazolin-4-yl)piperazin-1-yl)ethoxy)tetrahydro-2H-pyran-2-carboxylic acid]",< 100 nM,< 100 nM
"Nc1nc2c(c(N3CCN(CCO[C@H]4C[C@@H]5[C@H](C4)[C@@]5(F)C(=O)O)CC3)n1)CCc1cc(OCc3ccc(OC(F)(F)F)cc3)ccc1-2 [Example 180, (1R,3r,5S,6s)-3-(2-(4-(2-amino-8-((4-(trifluoromethoxy)benzyl)oxy)-5,6-dihydrobenzo[h]quinazolin-4-yl)piperazin-1-yl)ethoxy)-6-fluorobicyclo[3.1.0]hexane-6-carboxylic acid]",< 100 nM,< 100 nM
